Assays:
[1] = Static thermostability (GARDNER method), rigid PVC sheets, 210° C., 0.3 part stabilizer; conditions: for coloration of the resins, in words: 0 to 3 minutes
Procedure, shortened: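 Rigid sheets calendered at 160° C. from powdered PVC resin with 0.3 part by weight stabilizer (dihydropyridine or 2-phenyl-indole reference) plus usual ingredients. Sheets heated in oven at 210° C., removed every three minutes over 21 minutes until incipient carbonization. Coloration scored against GARDNER scale reference figures.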

[2] = Photostabilizing power, sheets exposed to the sun, rigid co-polymer (b)
Procedure: (§1) The sheets were exposed to the sun and their colorations were also determined according to the GARDNER method.

[3] = Thermostability, flexible co-polymer (c), Metrastat oven 160° C.; conditions: 0.3 part
Procedure: (§2) The study of the static thermostability of vinyl co-polymers was carried out according to the GARDNER method described above and, also in a more detailed manner in British Patent No. 1,489,685.
(c) Flexible co-polymer vinyl chloride-vinyl acetate
(§3) The following compound was prepared:
The sheets were heated in a Metrastat oven at 160° C. and the following results were obtained: […]

[4] = Static thermostability (GARDNER method), rigid PVC sheets, 185° C., 0.3 part stabilizer
Procedure, shortened: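 Rigid PVC sheets, calendered at 160° C with 0.3 part stabilizer and usual additives, were heated at 185° C. Samples came out every 6 min to 24 min, then every 3 min up to 42 min or carbonization, and colour was scored on the GARDNER scale.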

[5] = Photostabilizing power, sheets exposed to the sun, co-polymer (a)
Procedure: as §1

[6] = Comparison with stabilizer G1, 0.1 part, 185° C.
Procedure: A test was also carried out with the following compound:
Another test was made with the same resin but containing 0.1 part of stabilizer.

[7] = Polarographic study of the oxidation potential; type: physicochemical; conditions: acetonitrile, 0.1 M lithium perchlorate, vitrous carbon electrode, calomel reference
Procedure, shortened: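 Oxidation potential by polarography on a rotating vitreous carbon electrode (2,500 r.p.m.) with calomel reference and platinum counter electrode, in 0.1 M lithium perchlorate in dry acetonitrile. Scan 0 to 2 V at 10 mV/second; compounds at about 0.3×10^-3 mol/liter.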

[8] = Comparison with 2-phenyl-indole, vinyl chloride-vinylidene chloride co-polymer, 210° C.; conditions: 0.3 part
Procedure: A second test was made using the following compound:
The sheets were heated in a ventilated oven at 210° C. and the following results were obtained: […]

[9] = Thermostability, flexible co-polymer (b), Metrastat oven 160° C.; conditions: 0.2 part
Procedure: as §2
(b) Flexible co-polymer vinyl chloride-vinyl acetate.
as §3
The resin was allowed to gel for 5 minutes at 120° C. and the sheets were heated at 160° C. in a Metrastat oven.

[10] = Photostabilizing power, PVC plates exposed to the sun, GARDNER scale
Procedure: The photostabilizing power of the compounds of the invention was studied by exposing to the sun polyvinyl chloride plates which had been stabilized either by a dihydropyridine of the invention or by 2-phenyl-indole, or again by 2-(3'-methoxy-4'-hydroxy)-indole. This last product is an extremely valuable thermostabilizer for thermoplastic resins and is described in British Pat. No. 1,489,685.
The resin given hereunder was prepared by mixing on cylinders at 160° C.:
The plates of stabilized polyvinyl chloride, together with a plate which had not been stabilized, were stood in the sun under the same conditions and at the same time. Their colour was measured after 6 hours and 12 hours of exposure.
The coloration of the plates was determined according to two methods:
On the plates themselves, following the GARDNER scale, as in the section on thermostability,
The sign + means that the coloration lies between the lower unit and the upper half-unit. Thus, 3+ means that the coloration lies between 3 and 3.5. Similarly, the sign - means that the coloration lies between the lower half-unit and the upper unit.

[11] = Thermostability, rigid co-polymer (d), ventilated oven 210° C.; conditions: 0.3 part
Procedure: as §2
(d) Rigid co-polymer vinyl chloride-vinylidene chloride
as §3
The sheets were heated in a ventilated oven at 210° C.

[12] = Comparison with stabilizer G1, 0.3 part, 185° C.

C=CCOC(=O)C1=C(C)NC(C)=C(C(=O)OCC=C)C1 [Compound 1, 2,6-Dimethyl-3,5-dicarboallyloxy-1,4-dihydropyridine]
coloration, GARDNER scale ([1]; 0 min): 1 | coloration of the resins, in words [1]: considerably less | coloration, GARDNER scale ([1]; 3 min): 1 | thermostabilizing power compared to 2-phenyl-indole, in words ([1]; 210° C.): greatly superior to 2-phenyl-indole | coloration, GARDNER scale ([1]; 6 min): 2 | coloration, GARDNER scale ([1]; 9 min): 4 | coloration, GARDNER scale ([1]; 12 min): 7 | coloration, GARDNER scale ([1]; 15 min): Burnt | Colour in GARDNER degrees ([2]; After 24 hours): 2 GARDNER degrees | Colour in GARDNER degrees ([2]; Time 0): 1 GARDNER degrees | coloration, GARDNER scale ([3]; 0 min): 1 | coloration, GARDNER scale ([3]; 10 min): 1 | coloration, GARDNER scale ([3]; 20 min): 2 | coloration, GARDNER scale ([3]; 30 min): 4 | coloration, GARDNER scale ([3]; 40 min): 5.5 | coloration, GARDNER scale ([3]; 50 min): 6 | coloration, GARDNER scale ([3]; 60 min): 7 | coloration, GARDNER scale ([4]; 0 min): 1 | coloration, GARDNER scale ([4]; 6 min): 1 | coloration, GARDNER scale ([4]; 12 min): 3 | coloration, GARDNER scale ([4]; 18 min): 3 | coloration, GARDNER scale ([4]; 24 min): 5 | coloration, GARDNER scale ([4]; 27 min): 7 | coloration, GARDNER scale ([4]; 30 min): 10 | coloration, GARDNER scale ([4]; 33 min): 10.5 | coloration, GARDNER scale ([4]; 36 min): 11 | coloration, GARDNER scale ([4]; 39 min): 16 | coloration, GARDNER scale ([4]; 42 min): Burnt | Colour in GARDNER degrees ([5]; After 24 hours): 1 GARDNER degrees | Colour in GARDNER degrees ([5]; Time 0): 1 GARDNER degrees | coloration, GARDNER scale ([6]; 0 min): 1 | coloration, GARDNER scale ([6]; 2 min): 1 | coloration, GARDNER scale ([6]; 4 min): 2 | coloration, GARDNER scale ([6]; 6 min): 4 | coloration, GARDNER scale ([6]; 8 min): 8 | coloration, GARDNER scale ([6]; 10 min): 11 | coloration, GARDNER scale ([6]; 12 min): 12 | coloration, GARDNER scale ([6]; 14 min): 13 | Oxidation potential [7]: 0.75 ± 0.01 volts | coloration, GARDNER scale ([8]; 0 min): 1 | coloration, GARDNER scale ([8]; 3 min): 1 | coloration, GARDNER scale ([8]; 6 min): 2 | coloration, GARDNER scale ([8]; 9 min): 4 | coloration, GARDNER scale ([8]; 12 min): 10 | coloration, GARDNER scale ([9]; 0 min): 1 | coloration, GARDNER scale ([9]; 30 min): 2 | coloration, GARDNER scale ([9]; 40 min): 6 | coloration, GARDNER scale ([9]; 50 min): 12 | coloration, GARDNER scale ([9]; 60 min): 15 | Coloration of the plates GARDNER ([10]; exposure to sun 0): 1 | Coloration of the plates GARDNER ([10]; exposure to sun 6h): 1 | Coloration of the plates GARDNER ([10]; exposure to sun 12h): 1.5

CC1=C(C(=O)OCc2ccccc2)CC(C(=O)OCc2ccccc2)=C(C)N1 [Compound 21, 2,6-Dimethyl-3,5-dicarbobenzyloxy-1,4-dihydropyridine]
coloration, GARDNER scale ([1]; 0 min): 1 | coloration of the resins, in words [1]: considerably less | coloration, GARDNER scale ([1]; 3 min): 1 | coloration, GARDNER scale ([1]; 6 min): 2 | coloration, GARDNER scale ([1]; 9 min): 3 | coloration, GARDNER scale ([1]; 12 min): 5.5 | coloration, GARDNER scale ([1]; 15 min): 14 | coloration, GARDNER scale ([1]; 18 min): Burnt | Colour in GARDNER degrees ([2]; After 24 hours): 3.5 GARDNER degrees | Colour in GARDNER degrees ([2]; Time 0): 1.5 GARDNER degrees | coloration, GARDNER scale ([3]; 0 min): 1 | coloration, GARDNER scale ([3]; 10 min): 1 | coloration, GARDNER scale ([3]; 20 min): 2 | coloration, GARDNER scale ([3]; 30 min): 5 | coloration, GARDNER scale ([3]; 40 min): 6 | coloration, GARDNER scale ([3]; 50 min): 7 | coloration, GARDNER scale ([3]; 60 min): 12 | coloration, GARDNER scale ([4]; 0 min): 1 | coloration, GARDNER scale ([4]; 6 min): 1 | coloration, GARDNER scale ([4]; 12 min): 2 | coloration, GARDNER scale ([4]; 18 min): 10 | coloration, GARDNER scale ([4]; 24 min): 12 | coloration, GARDNER scale ([4]; 27 min): 12 | coloration, GARDNER scale ([4]; 30 min): 13 | coloration, GARDNER scale ([4]; 33 min): 14 | coloration, GARDNER scale ([4]; 36 min): Burnt | coloration, GARDNER scale ([11]; 0 min): 1.5 | coloration, GARDNER scale ([11]; 3 min): 2 | coloration, GARDNER scale ([11]; 6 min): 2 | coloration, GARDNER scale ([11]; 9 min): 3 | coloration, GARDNER scale ([11]; 12 min): 7 | coloration, GARDNER scale ([11]; 15 min): 15 | Colour in GARDNER degrees ([5]; After 24 hours): 1 GARDNER degrees | Colour in GARDNER degrees ([5]; Time 0): 1 GARDNER degrees | coloration, GARDNER scale ([6]; 0 min): 1 | coloration, GARDNER scale ([6]; 2 min): 1 | coloration, GARDNER scale ([6]; 4 min): 2 | coloration, GARDNER scale ([6]; 6 min): 4 | coloration, GARDNER scale ([6]; 8 min): 11 | coloration, GARDNER scale ([6]; 10 min): 13 | coloration, GARDNER scale ([6]; 12 min): 17 | coloration, GARDNER scale ([12]; 0 min): 1 | coloration, GARDNER scale ([12]; 2 min): 1 | coloration, GARDNER scale ([12]; 4 min): 2 | coloration, GARDNER scale ([12]; 6 min): 4 | coloration, GARDNER scale ([12]; 8 min): 7 | coloration, GARDNER scale ([12]; 10 min): 12 | coloration, GARDNER scale ([12]; 12 min): 16 | coloration, GARDNER scale ([12]; 14 min): 18 | Oxidation potential [7]: 0.73 ± 0.01 volts | coloration, GARDNER scale ([8]; 0 min): 1.5 | coloration, GARDNER scale ([8]; 3 min): 2 | coloration, GARDNER scale ([8]; 6 min): 2 | coloration, GARDNER scale ([8]; 9 min): 3 | coloration, GARDNER scale ([8]; 12 min): 7 | coloration, GARDNER scale ([8]; 15 min): 15 | coloration, GARDNER scale ([9]; 0 min): 1 | coloration, GARDNER scale ([9]; 30 min): 1 | coloration, GARDNER scale ([9]; 40 min): 3 | coloration, GARDNER scale ([9]; 50 min): 8 | coloration, GARDNER scale ([9]; 60 min): 15 | Coloration of the plates GARDNER ([10]; exposure to sun 0): 1 | Coloration of the plates GARDNER ([10]; exposure to sun 6h): 1 | Coloration of the plates GARDNER ([10]; exposure to sun 12h): 1.5
